Broadly, the Kd is the concentration at which binding is half-saturated. Higher therefore signals weaker binding. As a reminder, the IC50 is the point on the concentration scale where inhibition reaches its midpoint.

Here are results for three compounds from ChEMBL document CHEMBL1137909, “Synthesis and in vitro evaluation of (S)-2-([11C]methoxy)-4-[3-methyl-1-(2-piperidine-1-yl-phenyl)-butyl-carbamoyl]-benzoic acid ([11C]methoxy-repaglinide): a potential beta-cell imaging agent” (Bioorg Med Chem Lett, 2004).

The species named for assay [1] is Rattus norvegicus. In words: In vitro ability to stimulate insulin was determined at (15 mM glucose). It is filed as functional.
The species entered for assay [2] is Rattus norvegicus. In words: In vitro ability to stimulate insulin was determined at (5 mM glucose+0.1 uM compound). It is filed as functional.
In assay [3] the target is T1, ATP-binding cassette sub-family C member 8 (Homo sapiens, UniProt Q09428). In words: Displacement of [3H]glibenclamide from COS-1 cells expressing Sulfonylurea receptor 1 (SUR-1). In kind it is cell-based.
The target of assay [4] is T1, ATP-binding cassette sub-family C member 8. As to the kind of experiment: In vitro displacement of [3H]glibenclamide (IC50=0.61) from COS-1 cells expressing Sulfonylurea receptor 1 (SUR-1). It is filed as cell-based.
Assay [5] is filed under the species Rattus norvegicus. As to the kind of experiment: Percent stimulation index to stimulate insulin was determined. It is filed as functional.
The species named for assay [6] is Rattus norvegicus. In words: Percent relative stimulation index to stimulate insulin was determined. In kind it is functional.

The structures appear in SMILES notation.

T1 sequence (Q09428 whole entry): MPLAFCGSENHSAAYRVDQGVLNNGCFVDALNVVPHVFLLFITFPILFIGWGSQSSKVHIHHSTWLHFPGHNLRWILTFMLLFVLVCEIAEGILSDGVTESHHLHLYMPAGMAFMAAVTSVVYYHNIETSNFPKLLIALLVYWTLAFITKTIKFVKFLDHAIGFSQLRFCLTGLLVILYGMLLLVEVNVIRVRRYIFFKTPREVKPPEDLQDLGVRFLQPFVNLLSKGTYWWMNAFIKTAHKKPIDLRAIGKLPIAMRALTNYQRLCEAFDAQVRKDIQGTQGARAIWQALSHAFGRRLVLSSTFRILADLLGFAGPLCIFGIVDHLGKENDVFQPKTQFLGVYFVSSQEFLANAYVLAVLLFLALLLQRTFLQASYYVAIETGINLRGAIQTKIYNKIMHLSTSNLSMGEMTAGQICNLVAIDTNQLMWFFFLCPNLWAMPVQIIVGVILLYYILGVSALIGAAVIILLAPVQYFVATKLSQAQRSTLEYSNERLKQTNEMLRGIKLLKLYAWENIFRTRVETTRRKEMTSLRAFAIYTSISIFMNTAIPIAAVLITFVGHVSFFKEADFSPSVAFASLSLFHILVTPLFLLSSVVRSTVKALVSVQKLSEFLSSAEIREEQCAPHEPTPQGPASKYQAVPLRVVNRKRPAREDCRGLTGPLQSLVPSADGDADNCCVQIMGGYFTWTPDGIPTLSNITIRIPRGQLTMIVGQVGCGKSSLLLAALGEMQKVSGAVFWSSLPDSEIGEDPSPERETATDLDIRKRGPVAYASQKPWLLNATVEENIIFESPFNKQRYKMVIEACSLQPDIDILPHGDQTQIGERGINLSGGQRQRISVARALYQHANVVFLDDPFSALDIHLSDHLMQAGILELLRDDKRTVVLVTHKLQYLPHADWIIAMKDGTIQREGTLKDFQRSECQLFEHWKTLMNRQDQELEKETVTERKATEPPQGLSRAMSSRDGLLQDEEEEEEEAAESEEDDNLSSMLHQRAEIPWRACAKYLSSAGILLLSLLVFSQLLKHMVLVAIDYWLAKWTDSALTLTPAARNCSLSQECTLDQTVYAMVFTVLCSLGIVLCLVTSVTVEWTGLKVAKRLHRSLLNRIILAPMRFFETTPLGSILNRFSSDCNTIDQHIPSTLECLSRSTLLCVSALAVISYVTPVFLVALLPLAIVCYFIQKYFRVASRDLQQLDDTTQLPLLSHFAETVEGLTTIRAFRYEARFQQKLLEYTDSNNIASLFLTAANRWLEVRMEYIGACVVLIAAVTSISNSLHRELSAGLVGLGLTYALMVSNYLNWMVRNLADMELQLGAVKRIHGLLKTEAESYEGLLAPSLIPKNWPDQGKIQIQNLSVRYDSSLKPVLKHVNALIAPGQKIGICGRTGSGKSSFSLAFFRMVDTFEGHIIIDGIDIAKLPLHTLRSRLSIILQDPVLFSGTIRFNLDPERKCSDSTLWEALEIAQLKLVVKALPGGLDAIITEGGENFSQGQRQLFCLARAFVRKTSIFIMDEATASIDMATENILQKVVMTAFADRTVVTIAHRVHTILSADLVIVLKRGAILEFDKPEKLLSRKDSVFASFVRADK

As to `CCOc1cc(CC(=O)N[C@@H](CC(C)C)c2ccccc2N2CCCCC2)ccc1C(=O)O` [REPAGLINIDE], the Insulin release was determined as 4 ng/islet/1h in the assay filed under Rattus norvegicus [1] and 2.1 ng/islet/1h in the assay filed under Rattus norvegicus [2]. Moreover, the Kd in assay [3] worked out at 0.05 µM. For the same compound, in assay [4], the IC50 stood at 0.106 µM. Further, the Stimulation index in the assay filed under Rattus norvegicus [5] turned out to be 1.9 fold. Further, the Relative stimulation index in the assay listed under Rattus norvegicus [6] is 63%.
As to `CC(C)C[C@H](NC(=O)Cc1ccc(C(=O)O)c(OCCF)c1)c1ccccc1N1CCCCC1`, the equilibrium dissociation constant (Kd) in assay [3] is 0.134 µM. In assay [4], this compound gave a concentration for half-maximal inhibition (IC50) of 0.281 µM.
`COc1cc(CC(=O)N[C@@H](CC(C)C)c2ccccc2N2CCCCC2)ccc1C(=O)O`: the Insulin release in the assay filed under Rattus norvegicus [1] turned out to be 4 ng/islet/1h; in the assay filed under Rattus norvegicus [2] it was 2 ng/islet/1h. Also, binding in assay [3] was characterised by a dissociation constant (Kd) of 0.083 µM. Moreover, the concentration for half-maximal inhibition (IC50) in assay [4] amounted to 0.163 µM. Also, the Stimulation index in the assay listed under Rattus norvegicus [5] is 2 fold. In addition, the Relative stimulation index in the assay listed under Rattus norvegicus [6] is 64%.
